Experimental data: publication PMC8405607 (British Journal of Cancer, 2021)
Read-outs that look alike come from different tables or passages of the source.

What was measured:
[1] = phase I clinical plasma pharmacokinetics (noncompartmental); Reg 1: 3qw continuous; Reg 3: 3qw 2 weeks on/1 week off; type: in vivo, human; settings: human, plasma, oral; for AUC(0-t): read-out: AUClast, Mean (SD); for Cmax: read-out: Cmax, Mean (SD)
Description: Antitumor efficacy was assessed using computerised tomography (CT)/magnetic resonance imaging assessment at baseline and every 8 weeks until disease progression or the initiation of subsequent antineoplastic therapy or death, whichever occurred first. In addition, the criteria for determining confirmed partial response (PR) or complete response (CR) were required to be present for at least 4 weeks. Demographic and other baseline data and PK/PD parameters were summarised using descriptive statistics.[11] PK parameters were estimated using noncompartmental methods (Phoenix®, Pharsight, Mountain View, California, USA).

SJSA-1 tumours = experiment: efficacy in subcutaneous SJSA-1 tumour-bearing nude mice; type: in vivo, mouse
Description: All animal experiments were performed according to procedures covered by permit number BS-1975 issued by the Cantonal Veterinary Office, Basel, Switzerland, and in strict adherence to the Federal Animal Protection Act and the Federal Animal Protection Code. Female athymic nude mice (Hsd:Athymic Nude-Foxn1nu, 7–8 weeks old, 20–22 g) were obtained from Envigo (Germany). All animals were housed in a pathogen-controlled environment with access to food and water ad libitum, and were identified with transponders.

[2] = 300 mg, 300 mg Reg.3, Cycle 1 Day 12, n 6
[3] = 500 mg, 500 mg Reg.3, Cycle 1 Day 12, n 5

For `COc1cc2c(cc1OC(C)C)[C@H](c1ccc(Cl)cc1)N(c1ccc(N(C)C[C@H]3CC[C@H](N4CCN(C)C(=O)C4)CC3)cc1)C(=O)C2` [CGM097], which AUC(0-t) ([1]; 20 mg, 20 mg Reg.1, Cycle 2 Day 1, n 2, Tlast=8h) is on record?
The AUC(0-t) was 2470 ng·h/mL.

What about the Cmax ([1]; 20 mg, 20 mg Reg.1, Cycle 2 Day 1, n 2) of the same compound?
Its Cmax is 417 ng/mL.

And the AUC(0-t) ([1]; 40 mg, 40 mg Reg.1, Cycle 1 Day 1, n 4, Tlast=24h)?
Its AUC(0-t) is 8640 ng·h/mL.

And the Cmax ([1]; 40 mg, 40 mg Reg.1, Cycle 1 Day 1, n 4)?
Its Cmax is 648 ng/mL.

And the AUC(0-t) ([1]; 40 mg, 40 mg Reg.1, Cycle 1 Day 8, n 1, Tlast=8h)?
Its AUC(0-t) is 4560 ng·h/mL.

What about the Cmax ([1]; 40 mg, 40 mg Reg.1, Cycle 1 Day 8, n 2) of the same compound?
The Cmax was 776 ng/mL.

And the AUC(0-t) ([1]; 40 mg, 40 mg Reg.1, Cycle 2 Day 1, n 3, Tlast=8h)?
The AUC(0-t) was 4410 ng·h/mL.

And the Cmax ([1]; 40 mg, 40 mg Reg.1, Cycle 2 Day 1, n 3)?
Its Cmax is 780 ng/mL.

And the AUC(0-t) ([1]; 80 mg, 80 mg Reg.1, Cycle 1 Day 1, n 4, Tlast=24h)?
Its AUC(0-t) is 25800 ng·h/mL.

What about the Cmax ([1]; 80 mg, 80 mg Reg.1, Cycle 1 Day 1, n 4) of the same compound?
The Cmax was 1700 ng/mL.

What about the AUC(0-t) ([1]; 80 mg, 80 mg Reg.1, Cycle 1 Day 8, n 4, Tlast=8h) of the same compound?
Its AUC(0-t) is 12600 ng·h/mL.

What about the Cmax ([1]; 80 mg, 80 mg Reg.1, Cycle 1 Day 8, n 4) of the same compound?
Its Cmax is 1990 ng/mL.

What about the AUC(0-t) ([1]; 80 mg, 80 mg Reg.1, Cycle 2 Day 1, n 3, Tlast=8h) of the same compound?
The AUC(0-t) was 13800 ng·h/mL.

And the Cmax ([1]; 80 mg, 80 mg Reg.1, Cycle 2 Day 1, n 3)?
Its Cmax is 2150 ng/mL.

And the AUC(0-t) ([1]; 150 mg, 150 mg Reg.1, Cycle 1 Day 1, n 4, Tlast=24h)?
Its AUC(0-t) is 28400 ng·h/mL.

What about the Cmax ([1]; 150 mg, 150 mg Reg.1, Cycle 1 Day 1, n 4) of the same compound?
Its Cmax is 2170 ng/mL.

And the AUC(0-t) ([1]; 150 mg, 150 mg Reg.1, Cycle 1 Day 8, n 3, Tlast=8h)?
Its AUC(0-t) is 19300 ng·h/mL.

What about the Cmax ([1]; 150 mg, 150 mg Reg.1, Cycle 1 Day 8, n 3) of the same compound?
The Cmax was 3280 ng/mL.

What about the AUC(0-t) ([1]; 150 mg, 150 mg Reg.1, Cycle 2 Day 1, n 4, Tlast=8h) of the same compound?
Its AUC(0-t) is 18400 ng·h/mL.

And the Cmax ([1]; 150 mg, 150 mg Reg.1, Cycle 2 Day 1, n 4)?
Its Cmax is 2840 ng/mL.

What about the AUC(0-t) ([1]; 300 mg, 300 mg Reg.1, Cycle 1 Day 1, n 7, Tlast=24h) of the same compound?
Its AUC(0-t) is 76100 ng·h/mL.

And the Cmax ([1]; 300 mg, 300 mg Reg.1, Cycle 1 Day 1, n 7)?
Its Cmax is 5640 ng/mL.

What about the AUC(0-t) ([1]; 300 mg, 300 mg Reg.1, Cycle 1 Day 8, n 5, Tlast=8h) of the same compound?
Its AUC(0-t) is 48400 ng·h/mL.

And the Cmax ([1]; 300 mg, 300 mg Reg.1, Cycle 1 Day 8, n 5)?
Its Cmax is 7570 ng/mL.

And the AUC(0-t) ([1]; 300 mg, 300 mg Reg.1, Cycle 2 Day 1, n 4, Tlast=8h)?
Its AUC(0-t) is 52400 ng·h/mL.

And the Cmax ([1]; 300 mg, 300 mg Reg.1, Cycle 2 Day 1, n 4)?
The Cmax was 8020 ng/mL.

And the AUC(0-t) ([1]; 300 mg, 300 mg Reg.3, Cycle 1 Day 1, n 6, Tlast=24h)?
The AUC(0-t) was 44300 ng·h/mL.

And the Cmax ([1]; 300 mg, 300 mg Reg.3, Cycle 1 Day 1, n 6)?
Its Cmax is 3060 ng/mL.

What about the AUC(0-t) ([1]; 300 mg, 300 mg Reg.3, Cycle 1 Day 8, n 6, Tlast=8h) of the same compound?
Its AUC(0-t) is 24500 ng·h/mL.

What about the Cmax ([1]; 300 mg, 300 mg Reg.3, Cycle 1 Day 8, n 6) of the same compound?
Its Cmax is 3910 ng/mL.

And the AUC(0-t) [1, 2]?
Its AUC(0-t) is 166000 ng·h/mL.

And the Cmax [1, 2]?
The Cmax was 4380 ng/mL.

And the AUC(0-t) ([1]; 300 mg, 300 mg Reg.3, Cycle 2 Day 1, n 4, Tlast=8h)?
The AUC(0-t) was 16400 ng·h/mL.

What about the Cmax ([1]; 300 mg, 300 mg Reg.3, Cycle 2 Day 1, n 5) of the same compound?
Its Cmax is 2710 ng/mL.

What about the AUC(0-t) ([1]; 400 mg, 400 mg Reg.1, Cycle 1 Day 1, n 4, Tlast=24h) of the same compound?
Its AUC(0-t) is 83600 ng·h/mL.

And the Cmax ([1]; 400 mg, 400 mg Reg.1, Cycle 1 Day 1, n 5)?
The Cmax was 4710 ng/mL.

What about the AUC(0-t) ([1]; 400 mg, 400 mg Reg.1, Cycle 1 Day 8, n 3, Tlast=8h) of the same compound?
Its AUC(0-t) is 42900 ng·h/mL.

What about the Cmax ([1]; 400 mg, 400 mg Reg.1, Cycle 1 Day 8, n 3) of the same compound?
Its Cmax is 6700 ng/mL.

And the AUC(0-t) ([1]; 400 mg, 400 mg Reg.1, Cycle 2 Day 1, n 5, Tlast=8h)?
The AUC(0-t) was 46800 ng·h/mL.

What about the Cmax ([1]; 400 mg, 400 mg Reg.1, Cycle 2 Day 1, n 5) of the same compound?
The Cmax was 6960 ng/mL.

What about the AUC(0-t) ([1]; 500 mg, 500 mg Reg.3, Cycle 1 Day 1, n 6, Tlast=24h) of the same compound?
The AUC(0-t) was 76100 ng·h/mL.

And the Cmax ([1]; 500 mg, 500 mg Reg.3, Cycle 1 Day 1, n 6)?
Its Cmax is 4640 ng/mL.

And the AUC(0-t) ([1]; 500 mg, 500 mg Reg.3, Cycle 1 Day 8, n 4, Tlast=8h)?
The AUC(0-t) was 41800 ng·h/mL.

What about the Cmax ([1]; 500 mg, 500 mg Reg.3, Cycle 1 Day 8, n 6) of the same compound?
Its Cmax is 7540 ng/mL.

What about the AUC(0-t) [1, 3] of the same compound?
Its AUC(0-t) is 503000 ng·h/mL.

And the Cmax [1, 3]?
The Cmax was 10700 ng/mL.

And the AUC(0-t) ([1]; 500 mg, 500 mg Reg.3, Cycle 2 Day 1, n 6, Tlast=8h)?
Its AUC(0-t) is 26800 ng·h/mL.

And the Cmax ([1]; 500 mg, 500 mg Reg.3, Cycle 2 Day 1, n 6)?
Its Cmax is 4810 ng/mL.

What about the AUC(0-t) ([1]; 700 mg, 700 mg Reg.3, Cycle 1 Day 1, n 5, Tlast=24h) of the same compound?
Its AUC(0-t) is 79100 ng·h/mL.

What about the Cmax ([1]; 700 mg, 700 mg Reg.3, Cycle 1 Day 1, n 5) of the same compound?
Its Cmax is 5590 ng/mL.

And the AUC(0-t) ([1]; 700 mg, 700 mg Reg.3, Cycle 1 Day 8, n 4, Tlast=8h)?
The AUC(0-t) was 58200 ng·h/mL.

And the Cmax ([1]; 700 mg, 700 mg Reg.3, Cycle 1 Day 8, n 4)?
The Cmax was 9570 ng/mL.

And the AUC(0-t) ([1]; 700 mg, 700 mg Reg.3, Cycle 1 Day 12, n 2)?
Its AUC(0-t) is 237000 ng·h/mL.

And the Cmax ([1]; 700 mg, 700 mg Reg.3, Cycle 1 Day 12, n 3)?
Its Cmax is 9240 ng/mL.

What about the AUC(0-t) ([1]; 700 mg, 700 mg Reg.3, Cycle 2 Day 1, n 4, Tlast=8h) of the same compound?
Its AUC(0-t) is 35800 ng·h/mL.

And the Cmax ([1]; 700 mg, 700 mg Reg.3, Cycle 2 Day 1, n 4)?
The Cmax was 5860 ng/mL.

What about the Tmax ([1]; fasted state, across dose groups, read-out: median Tmax) of the same compound?
The Tmax was 1.6 to 4.17 h.

What about the “tumour growth reduced compared to vehicle” value (SJSA-1 tumours; 25 mg/kg daily) of the same compound?
Its value is 50%.

What about the T/C (SJSA-1 tumours; 50 mg/kg daily, stable disease) of the same compound?
The T/C was 3%.

What about the tumour regression (SJSA-1 tumours; 100 mg/kg daily, after 10 days of treatment) of the same compound?
Its tumour regression is 65%.
